Assay results published in US20020155084A1, “Nanoemulsion formulations” (The Regents of the University of the Michigan, priority 2000, published 2002).

Test system: hairy mouse skin
Details: 2:1 nanoemulsion, aqueous phase 0.05 M HEPES pH 7.4; 5 μg/ml inulin or 3 μg/ml tranexamic acid, FIG. 9

In the case of inulin, the marker permeation slope is reported as 0.233 % per hour per square centimeter.
